Source: US20170029388A1, “Treatment of Neurodegenerative Diseases with Asparagine Endopeptidase (AEP) Inhibitors and Compositions Related Thereto” (INTERCONTINENTAL GREAT BRANDS LLC, priority 2014, published 2017)
Read-outs that look alike come from different tables or passages of the source. Values belong to the compound of their own block, whether it stands above or below them.

How the values were obtained:
[1] = human, microsomes
[2] = mouse, microsomes
Caspase-8 = biological target: T1, Caspase-8 (Homo sapiens, UniProt Q14790); test: Caspase-8 enzymatic assay (specificity); assay type: biochemical
T1 construct: purchased Millipore
Experimental: (§1) Purified recombinant enzyme was incubated with various concentrations of inhibitor in appropriate assay buffers in the presence of increasing concentrations of inhibitor. The formation of fluorescent product was monitored in duplicate reactions and the data was fit to appropriate equations to calculate the IC50 values.
(§2) To identify small-molecule inhibitors of AEP, a high-throughput screen was designed in conjunction with the Emory Chemical Biology Discovery Center. The screen incorporated mouse kidney lysates to assay a 54,384 compound library. […] Additional structural analysis and grouping allowed the compounds to be sorted into 8 distinct backbone families. […] The specificity of the compounds was also determined using four major cysteine proteases (FIG. 2).
(§3) Caspase-3 and 8 —The enzyme was pre-incubated with inhibitor in assay buffer (100 mM HEPES pH 7.4, 0.1% CHAPS, 10% Sucrose) for 10 min at 37° C. The reaction was initiated upon addition of 25 μM substrate (Ac-Asp-Glu-Val-Asp-AMC (Bachem)).

HepG2 cells = test: COMET assay and micronucleus assay (genotoxicity); assay type: cell-based, human; conditions: 50 μM, 24 hr
Experimental: A. MTT assay, in which 50 μM of each compound was incubated with HepG2 cells for 24 hrs. The compound-containing medium was removed and the cells were incubated with MTT solution for 3 hrs. Subsequently, the MTT solution was replaced with DMSO and the 0D570 was observed. B. LDH assay, in which 50 μM of each compound was incubated with primary culture neurons for 48 hrs. The media was then collected and incubated with LDH assay substrate for 30 min at room temp, in the dark. After the reactions were quenched, the 0D490 was observed. C. COMET assay results; 50 μM compound was incubated with HepG2 cells for 24 hrs. The cells were then added low-melt agarose and plated on microscope slides. The cells were lysed and the DNA was denatured and subject to electrophoresis. Finally, the DNA was stained with SYBR Green and 100 nuclei were counted for each sample, in each experiment; the experiment was performed in triplicate. […] Cells were fixed and nuclei were stained with DAPI and 1,000 cells were counted per sample; three independent experiments were performed.
In an effort to characterize the toxicity of the compounds, an MTT assay was performed using human hepatocellular carcinoma, HepG2 cells and primary culture neurons to monitor the cell viability. […] The cytotoxicity of the compounds in primary neuronal cultures was determined using an LDH assay to measure cytolysis (FIG. 4B). […]

Cathepsin-S = biological target: T2, Cathepsin-S (Homo sapiens, UniProt P25774); test: Cathepsin-S enzymatic assay (specificity); assay type: biochemical
T2 construct: purchased Athens Research and Technology
Experimental: as §1, §2
Cathepsin-S—100 nM enzyme was pre-incubated with inhibitor in assay buffer (100 mM NaH2PO4 pH 6.5, 100 mM NaCl) for 10 min at 37° C. The reaction was initiated upon addition of 25 μM substrate (Boc-Val-Leu-Lys-AMC (Bachem)).

Caspase-3 = biological target: T3, Caspase-3 (Homo sapiens, UniProt P42574); test: Caspase-3 enzymatic assay (specificity); assay type: biochemical
T3 construct: purchased Millipore
Experimental: as §1, §2, §3

Cathepsin-L = Cathepsin-L (Homo sapiens, UniProt P07711); test: Cathepsin-L enzymatic assay (specificity); assay type: biochemical
Experimental: as §1, §2
Cathepsin-L—100 nM enzyme was pre-incubated with inhibitor in assay buffer (100 mM Sodium Acetate pH 5.5, 1 mM EDTA) for 10 min at 37° C. The reaction was initiated upon addition of 25 μM substrate (D-Val-Leu-Lys-AMC (Bachem)).

AEP = test: Oxygen-glucose deprivation (OGD) in primary neurons, AEP activity; assay type: cell-based; conditions: 0.1 μM or 1.0 μM compound
Experimental: (§4) A. AEP activity, measured in primary neuronal cultures with 5 μM Cbz-Ala-Ala-Asn-AMC (x-axis denotes neurons were treated with 0.1 μM or 1.0 μM specified compound). B. Caspase activity, measured in primary neuronal cultures with 5 μM Ac-Asp-Glu-Val-Asp-AMC. C. Cathepsin activity, measured in primary neuronal cultures with 5 μM D-Val-Leu-Lys-AMC. D. Inhibition of APP cleavage. Lysates of primary cortical neurons pre-incubated with compounds for 30 min, underwent OGD for 4 hrs, were reperfused for 18 hrs (normoxia neurons remained at normoxic conditions). E. APP can be cleaved in a dose-dependent manner. Lysates of primary cortical neurons pre-incubated with compounds for 30 min, underwent OGD for 4 hrs, were reperfused for 18 hrs (normoxia neurons remained at normoxic conditions).
Depriving cells of oxygen and glucose is a cellular model that is employed to trigger acidosis in cultured cells. The efficacy of the compounds in a cellular model of oxygen-glucose deprivation (OGD) was determined in an effort to mimic the effects of stroke in primary cultured neurons. As a result of depriving neurons of oxygen and glucose-containing medium, AEP activity was doubled (FIG. 7A, ‘DMSO-Norm’ compared to ‘DMSO-OGD’), while Caspase-3 and Cathepsin activities remained relatively unchanged. […]

CYP1A2 = biological target: T4, CYP1A2 (Homo sapiens, UniProt P05177); test: CYP inhibition screening, CYP1A2; assay type: in vitro ADME
T4 sequence (P05177 1-516): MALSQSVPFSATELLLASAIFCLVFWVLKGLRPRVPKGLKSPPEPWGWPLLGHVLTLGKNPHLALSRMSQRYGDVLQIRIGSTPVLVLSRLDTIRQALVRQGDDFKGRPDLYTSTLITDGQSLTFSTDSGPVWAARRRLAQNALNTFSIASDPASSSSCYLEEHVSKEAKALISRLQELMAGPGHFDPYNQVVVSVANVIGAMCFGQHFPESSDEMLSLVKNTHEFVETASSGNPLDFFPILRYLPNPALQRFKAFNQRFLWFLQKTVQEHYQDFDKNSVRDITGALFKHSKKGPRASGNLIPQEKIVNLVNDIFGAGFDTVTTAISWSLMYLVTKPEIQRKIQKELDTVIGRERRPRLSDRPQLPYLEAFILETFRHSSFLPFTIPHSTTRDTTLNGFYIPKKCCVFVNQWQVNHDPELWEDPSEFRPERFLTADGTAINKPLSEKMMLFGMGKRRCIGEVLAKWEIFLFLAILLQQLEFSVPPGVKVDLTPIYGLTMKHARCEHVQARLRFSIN

CYP3A4 = CYP3A4 (Homo sapiens, UniProt P08684); test: CYP inhibition screening, CYP3A4-Midazolam; assay type: in vitro ADME
CYP2C19 = CYP2C19 (Homo sapiens, UniProt P33261); test: CYP inhibition screening, CYP2C19; assay type: in vitro ADME
[3] = test system: cleavage of the amyloid precursor protein (APP); test: OGD in primary cortical neurons, APP cleavage (immunoblot); assay type: cell-based
Experimental: as §4
Depriving cells of oxygen and glucose is a cellular model that is employed to trigger acidosis in cultured cells. The efficacy of the compounds in a cellular model of oxygen-glucose deprivation (OGD) was determined in an effort to mimic the effects of stroke in primary cultured neurons. As a result of depriving neurons of oxygen and glucose-containing medium, AEP activity was doubled (FIG. 7A, ‘DMSO-Norm’ compared to ‘DMSO-OGD’), while Caspase-3 and Cathepsin activities remained relatively unchanged. […] Cleavage of APP is observed in response to only DMSO treatment (FIG. 7D, lane 2), and it appears that upon the treatment of 1 μM of compounds 10, 11, and 12, and just 0.1 μM of compounds 31, 38 and 64, the cleavage was blocked, presumably due to AEP inhibition.
Compounds were pre-incubated with primary culture neurons, DIV13, for 30 min. The medium was exchanged for glucose-free DMEM and neurons were de-gased and incubated at 37° C., 95% N2/5% CO2 for 4 hrs with compounds. The medium was exchanged for DMEM and supplemented with compounds, then neurons were reperfused for 18 hrs under normoxic conditions. The neuronal lysates were prepared for AEP, Caspase-3 and Cathepsin assays. Moreover, immunoblotting analysis was conducted with the neuronal lysates using anti-APP, anti-AEP antibodies.

[4] = Liver microsomal stability, human; conditions: human liver microsomes
[5] = PAMPA
[6] = Liver microsomal stability, mouse; conditions: mouse liver microsomes
Caco-2 monolayer = Caco-2 monolayer permeability screen; assay type: in vitro ADME; conditions: Caco-2
Experimental: To explore the in vitro ADME profiles of the compounds, additional tests were conducted.

CYP3A = test: CYP inhibition screening, CYP3A-Testosterone; assay type: in vitro ADME
CYP2D6 = CYP2D6 (Homo sapiens, UniProt P10635); test: CYP inhibition screening, CYP2D6; assay type: in vitro ADME
CYP2C9 = CYP2C9 (Homo sapiens, UniProt P11712); test: CYP inhibition screening, CYP2C9; assay type: in vitro ADME
CYP2C9, sequence (P11712 whole entry): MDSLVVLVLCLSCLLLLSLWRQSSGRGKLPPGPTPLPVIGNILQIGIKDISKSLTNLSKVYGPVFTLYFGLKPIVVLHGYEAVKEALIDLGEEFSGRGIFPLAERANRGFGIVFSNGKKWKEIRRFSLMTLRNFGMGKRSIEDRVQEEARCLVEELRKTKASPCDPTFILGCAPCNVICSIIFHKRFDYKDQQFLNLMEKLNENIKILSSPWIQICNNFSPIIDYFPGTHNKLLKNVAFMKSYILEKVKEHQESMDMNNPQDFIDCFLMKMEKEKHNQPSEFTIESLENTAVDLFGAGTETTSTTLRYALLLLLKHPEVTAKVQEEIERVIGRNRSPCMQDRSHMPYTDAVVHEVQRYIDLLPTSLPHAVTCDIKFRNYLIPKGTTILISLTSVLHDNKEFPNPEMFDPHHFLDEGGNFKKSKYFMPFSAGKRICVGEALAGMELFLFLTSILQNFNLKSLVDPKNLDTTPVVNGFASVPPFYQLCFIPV

CYP3A4, sequence (P08684 whole entry): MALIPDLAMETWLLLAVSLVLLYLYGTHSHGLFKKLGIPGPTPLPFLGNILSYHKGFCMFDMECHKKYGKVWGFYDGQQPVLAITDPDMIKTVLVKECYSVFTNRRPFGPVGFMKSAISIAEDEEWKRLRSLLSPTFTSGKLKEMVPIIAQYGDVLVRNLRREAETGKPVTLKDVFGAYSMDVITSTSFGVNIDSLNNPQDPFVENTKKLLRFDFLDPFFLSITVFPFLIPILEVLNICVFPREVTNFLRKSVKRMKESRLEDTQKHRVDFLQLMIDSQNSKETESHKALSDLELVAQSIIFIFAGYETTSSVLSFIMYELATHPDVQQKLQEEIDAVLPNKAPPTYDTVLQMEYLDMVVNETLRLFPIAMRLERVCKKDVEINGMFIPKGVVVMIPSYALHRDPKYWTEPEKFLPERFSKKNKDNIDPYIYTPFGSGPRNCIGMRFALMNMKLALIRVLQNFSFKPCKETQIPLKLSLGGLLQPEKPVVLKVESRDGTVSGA
CYP2C19, sequence (P33261 whole entry): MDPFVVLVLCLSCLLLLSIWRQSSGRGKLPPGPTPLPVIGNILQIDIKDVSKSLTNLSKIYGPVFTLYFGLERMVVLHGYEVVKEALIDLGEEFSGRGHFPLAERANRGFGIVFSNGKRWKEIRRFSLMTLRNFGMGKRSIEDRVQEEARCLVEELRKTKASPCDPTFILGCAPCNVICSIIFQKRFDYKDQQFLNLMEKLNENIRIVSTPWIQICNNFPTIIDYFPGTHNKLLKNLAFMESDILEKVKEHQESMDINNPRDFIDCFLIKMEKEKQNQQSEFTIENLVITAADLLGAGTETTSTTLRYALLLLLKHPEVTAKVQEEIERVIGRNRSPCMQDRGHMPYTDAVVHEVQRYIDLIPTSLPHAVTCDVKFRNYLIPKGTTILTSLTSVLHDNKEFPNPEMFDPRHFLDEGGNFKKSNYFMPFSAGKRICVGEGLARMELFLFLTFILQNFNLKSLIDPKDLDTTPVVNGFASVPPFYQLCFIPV
CYP2D6, sequence (P10635 whole entry): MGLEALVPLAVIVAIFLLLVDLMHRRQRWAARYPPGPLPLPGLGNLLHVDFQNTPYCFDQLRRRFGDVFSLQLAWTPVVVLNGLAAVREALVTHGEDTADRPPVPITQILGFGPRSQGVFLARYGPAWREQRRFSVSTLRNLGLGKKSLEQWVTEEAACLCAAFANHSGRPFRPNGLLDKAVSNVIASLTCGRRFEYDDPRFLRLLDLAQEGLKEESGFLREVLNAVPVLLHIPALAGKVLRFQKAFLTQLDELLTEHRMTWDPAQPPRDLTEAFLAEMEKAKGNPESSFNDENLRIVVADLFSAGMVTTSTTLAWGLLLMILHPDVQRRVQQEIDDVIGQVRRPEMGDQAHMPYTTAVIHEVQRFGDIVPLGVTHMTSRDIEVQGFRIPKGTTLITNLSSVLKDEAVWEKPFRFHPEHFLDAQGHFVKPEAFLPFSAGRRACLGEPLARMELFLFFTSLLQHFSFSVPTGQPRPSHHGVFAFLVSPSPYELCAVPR
T2 sequence (P25774 115-331): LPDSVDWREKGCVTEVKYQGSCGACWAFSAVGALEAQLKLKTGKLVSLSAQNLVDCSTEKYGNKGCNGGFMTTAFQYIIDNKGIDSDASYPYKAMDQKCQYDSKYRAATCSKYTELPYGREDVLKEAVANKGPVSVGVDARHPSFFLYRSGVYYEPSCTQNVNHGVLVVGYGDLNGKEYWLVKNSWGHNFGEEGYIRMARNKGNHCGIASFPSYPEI
T3 sequence (P42574 29-175 limits assumed, species assumed): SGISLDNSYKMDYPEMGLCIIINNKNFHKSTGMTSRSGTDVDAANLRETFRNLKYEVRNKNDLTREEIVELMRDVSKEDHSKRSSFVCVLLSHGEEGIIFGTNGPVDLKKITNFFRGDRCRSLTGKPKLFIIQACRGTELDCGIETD
T3 sequence (P42574 176-277 limits assumed, species assumed): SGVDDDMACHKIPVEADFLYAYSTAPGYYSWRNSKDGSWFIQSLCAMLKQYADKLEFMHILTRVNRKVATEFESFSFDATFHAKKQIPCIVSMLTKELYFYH
Cathepsin-L, sequence (P07711 114-333, species assumed): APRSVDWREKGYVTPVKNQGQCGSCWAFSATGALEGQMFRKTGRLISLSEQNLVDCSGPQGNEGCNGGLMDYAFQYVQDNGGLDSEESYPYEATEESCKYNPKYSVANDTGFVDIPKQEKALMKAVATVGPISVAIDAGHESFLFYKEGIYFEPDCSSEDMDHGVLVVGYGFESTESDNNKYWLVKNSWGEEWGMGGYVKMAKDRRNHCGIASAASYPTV
T1 sequence (Q14790 217-374 limits assumed, species assumed): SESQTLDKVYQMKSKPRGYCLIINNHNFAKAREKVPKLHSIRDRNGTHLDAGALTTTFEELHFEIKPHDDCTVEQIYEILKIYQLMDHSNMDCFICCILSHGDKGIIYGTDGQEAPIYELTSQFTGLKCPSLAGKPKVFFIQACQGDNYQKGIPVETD
T1 sequence (Q14790 385-479 limits assumed, species assumed): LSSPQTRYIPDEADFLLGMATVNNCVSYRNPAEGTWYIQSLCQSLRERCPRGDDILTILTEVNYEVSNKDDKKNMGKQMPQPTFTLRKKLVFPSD

Mean Remaining Parent (with NADPH) ([1]; 0.5 h): 96%
Mean Remaining Parent (NADPH-free) ([1]; 30 min): 104%
Mean Remaining Parent (NADPH-free) [2]: 100%
Mean Remaining Parent (with NADPH) [2]: 91%
Compound: CC(=O)CC(c1ccccc1)c1c(O)c2ccccc2oc1=O (centres unmarked) [Warfarin]

IC50 (Caspase-8): > 100 µM
IC50 (Cathepsin-S): > 100 µM
IC50 (Caspase-3): > 100 µM
IC50 (Cathepsin-L): > 100 µM
Compound: CN(C)c1ccc(N2C(=O)C=CC2=O)cc1 [Compound 22]
genotoxicity (COMET and micronucleus assays) (HepG2 cells): the only test compound to show genotoxicity

Compound: Cc1cccc(NCc2ccc(O)c3ncccc23)c1C [Compound 12]
AEP activity in OGD-treated neurons (AEP): slight decrease
CYP inhibition, CYP1A2 (CYP1A2; test concentration 3 μM): 28.4%
CYP inhibition, CYP1A2 (CYP1A2; test concentration 10 μM): 44.5%
CYP inhibition, CYP3A4-Midazolam (CYP3A4; test concentration 3 μM): −2.5%
CYP inhibition, CYP3A4-Midazolam (CYP3A4; test concentration 10 μM): −2.5%
CYP inhibition, CYP2C19 (CYP2C19; test concentration 3 μM): 13.4%
CYP inhibition, CYP2C19 (CYP2C19; test concentration 10 μM): 29.4%
dose dependence of APP cleavage after OGD [3]: dose-dependent decrease
cleavage of APP after OGD ([3]; 1 μM compound): blocked
Mean Remaining Parent (NADPH-free) [4]: 1%
Mean Remaining Parent (with NADPH) ([4]; 30 min of incubation): 1%
Pe [5]: <LLOQ
Mean Remaining Parent (NADPH-free) [6]: 0%
Mean Remaining Parent (with NADPH) [6]: 1%
A -> B Papp (Caco-2 monolayer): 1.4 10^−6 cm · s^−1
B -> A Papp (Caco-2 monolayer): 3.7 10^−6 cm · s^−1
RE (Caco-2 monolayer): 2.7
CYP inhibition, CYP3A-Testosterone (CYP3A; test concentration 3 μM): 14.2%
CYP inhibition, CYP3A-Testosterone (CYP3A; test concentration 10 μM): 27.6%
CYP inhibition, CYP2D6 (CYP2D6; test concentration 3 μM): 2.9%
CYP inhibition, CYP2D6 (CYP2D6; test concentration 10 μM): −2.6%
CYP inhibition, CYP2C9 (CYP2C9; test concentration 3 μM): 4.3%
CYP inhibition, CYP2C9 (CYP2C9; test concentration 10 μM): −2.7%
